Laboratory results reported in PMC12564265, “Navigating the Deep Eutectic Solvent Landscape: Experimental and Machine Learning Solubility Explorations of Syringic, p-Coumaric, and Caffeic Acids” (International Journal of Molecular Sciences, 2025).
Values joined by “and” are separate entries in the source; they are usually repeats but may differ in a detail not shown here. Equal values may be shown once.

Columns and labels:
[1] = Shake-flask solubility with spectrophotometric measurement in neat deep eutectic solvents; type: physicochemical
Procedure: (§1) In order to determine the solubility of the three studied phenolic acids in deep eutectic solvents, a very well-established shake-flask method coupled with spectrophotometric measurements was utilized. The initial procedure involved the preparation of various DESs, which was conducted by mixing their HBA and HBD counterparts in a glass vessel and heating the composition until the formation of a transparent, uniform liquid. […] For additional measurements, the DESs were mixed with water in varying proportions, creating aqueous DES systems. Saturated solutions of CAF, SYR, and COU were obtained by adding excess amounts of these compounds to test tubes containing either a neat deep eutectic solvent or its aqueous solution. Such samples were placed in the Orbital Shaker Incubator ES-20/60 from Biosan (Riga, Latvia) and heated for 24 h at 25 °C, 30 °C, 35 °C, and 40 °C (±0.1 °C) with simultaneous mixing at 60 rpm. Before measurements, the samples were filtered using a PTFE syringe filter from Qpore (Dallas, TX, USA) with a 0.22 μm pore size. In order to avoid possible precipitation of the saturated solutions at decreased temperatures, the test tubes, syringes, pipette tips, and filters were kept at a temperature identical to that of the samples. The spectrophotometric measurements required the preparation of calibration curves for the three APIs. This involved the preparation of a stock solution of each compound in methanol, which was later successfully diluted, and the obtained solutions of varying concentrations were measured using an A360 spectrophotometer from AOE Instruments (Shanghai, China). The wavelength range was set to 200-500 nm, and the resolution was 1 nm. The analytical wavelengths were determined to be 324 nm for caffeic acid, 273 nm for syringic acid, and 308 nm for p-coumaric acid. The final regression equations, obtained after averaging three distinct sets of measurements, are collected in Table 2 together with determination coefficients and limits of detection (LOD) and quantification (LOQ) for the calibration curves. The measurements of the samples were conducted with the same spectrophotometer and identical settings. Methanol was used for the dilution of the samples so that they could remain within the linearity range of the method. Complete spectra of the samples were recorded, but for the solubility determination, the absorbance values at a specific analytical wavelength were considered. These values were combined with the corresponding regression equations of the calibration curves and served for the calculation of the concentration of the three phenolic acids in the studied samples. The densities of such samples were also measured, and for this task 1 mL of each sample was weighed to a precision of 0.1 mg using an AS 110 R2.PLUS analytical balance from […] (Radom, Poland). The obtained densities enabled the calculation of mole fractions of CAF, SYR, and COU dissolved in the studied DESs. For each considered system, three distinct measurements were conducted, and the results were averaged.

[2] = Shake-flask solubility with spectrophotometric measurement in aqueous DES mixtures; type: physicochemical; conditions: Bet – TEG 1:2 + water
Procedure: as §1

In the case of `O=C(O)C=Cc1ccc(O)c(O)c1` [caffeic acid, 3,4-dihydroxycinnamic acid], the Mole fraction solubility ([1]; neat DES Bet - DEG, HBA:HBD molar ratio 1:1, 25 °C) is reported as 0.0497±0.0004 mole fraction, the Mole fraction solubility ([1]; neat DES Bet - DEG, HBA:HBD molar ratio 1:2, 25 °C) is reported as 0.0576±0.0005 mole fraction and the Mole fraction solubility ([1]; neat DES Bet - DEG, HBA:HBD molar ratio 1:4, 25 °C) is reported as 0.0537±0.0004 mole fraction. It also gave a Mole fraction solubility ([1]; neat DES Bet - ETG, HBA:HBD molar ratio 1:1, 25 °C) of 0.0411±0.0004 mole fraction, a Mole fraction solubility ([1]; neat DES Bet - ETG, HBA:HBD molar ratio 1:2, 25 °C) of 0.0458±0.0004 mole fraction and a Mole fraction solubility ([1]; neat DES Bet - GLY, HBA:HBD molar ratio 1:1, 25 °C) of 0.0561±0.0004 mole fraction. For the same compound, the Mole fraction solubility ([1]; neat DES Bet - GLY, HBA:HBD molar ratio 1:2, 25 °C) was 0.0622±0.0006 mole fraction, the Mole fraction solubility ([1]; neat DES Bet - GLY, HBA:HBD molar ratio 1:4, 25 °C) was 0.0573±0.0002 mole fraction and the Mole fraction solubility ([1]; neat DES Bet - TEG, HBA:HBD molar ratio 1:1, 25 °C) was 0.0655±0.0012 mole fraction. The Mole fraction solubility ([1]; neat DES Bet - TEG, HBA:HBD molar ratio 1:2, 25 °C) was 0.0755±0.0010 mole fraction, the Mole fraction solubility ([1]; neat DES Bet - TEG, HBA:HBD molar ratio 1:2, 25 °C, listed as Caffeic acid) was 0.0755 mole fraction and the Mole fraction solubility ([1]; neat DES Bet - TEG, HBA:HBD molar ratio 1:4, 25 °C) was 0.0716±0.0007 mole fraction. For the same compound, the Mole fraction solubility ([1]; neat DES ChCl - DEG, HBA:HBD molar ratio 1:1, 25 °C) was 0.0584±0.0003 mole fraction, the Mole fraction solubility ([1]; neat DES ChCl - DEG, HBA:HBD molar ratio 1:2, 25 °C) was 0.0664±0.0005 mole fraction and the Mole fraction solubility ([1]; neat DES ChCl - ETG, HBA:HBD molar ratio 1:1, 25 °C) was 0.0435±0.0004 mole fraction. The Mole fraction solubility ([1]; neat DES ChCl - ETG, HBA:HBD molar ratio 1:2, 25 °C) was 0.0494±0.0003 mole fraction, the Mole fraction solubility ([1]; neat DES ChCl - ETG, HBA:HBD molar ratio 1:4, 25 °C) was 0.0471±0.0003 mole fraction and the Mole fraction solubility ([1]; neat DES ChCl - TEG, HBA:HBD molar ratio 1:2, 25 °C) was 0.0835 mole fraction. The Mole fraction solubility ([2]; x*DES 0.1, 25°C) was 0.0077±0.0001 mole fraction, the Mole fraction solubility ([2]; x*DES 0.1, 30°C) was 0.0087±0.0001 mole fraction and the Mole fraction solubility ([2]; x*DES 0.1, 35°C) was 0.0101±0.0001 mole fraction. For the same compound, the Mole fraction solubility ([2]; x*DES 0.1, 40°C) was 0.0121±0.0001 mole fraction, the Mole fraction solubility ([2]; x*DES 0.2, 25°C) was 0.0155±0.0001 mole fraction and the Mole fraction solubility ([2]; x*DES 0.2, 30°C) was 0.0195±0.0002 mole fraction. It also gave a Mole fraction solubility ([2]; x*DES 0.2, 35°C) of 0.0203±0.0002 mole fraction, a Mole fraction solubility ([2]; x*DES 0.2, 40°C) of 0.0243±0.0003 mole fraction and a Mole fraction solubility ([2]; x*DES 0.3, 25°C) of 0.0243±0.0002 mole fraction. The Mole fraction solubility ([2]; x*DES 0.3, 30°C) was 0.0271±0.0002 mole fraction, the Mole fraction solubility ([2]; x*DES 0.3, 35°C) was 0.0318±0.0002 mole fraction and the Mole fraction solubility ([2]; x*DES 0.3, 40°C) was 0.0377±0.0003 mole fraction. For the same compound, the Mole fraction solubility ([2]; x*DES 0.4, 25°C) was 0.0343±0.0002 mole fraction, the Mole fraction solubility ([2]; x*DES 0.4, 30°C) was 0.0379±0.0001 mole fraction and the Mole fraction solubility ([2]; x*DES 0.4, 35°C) was 0.0450±0.0002 mole fraction. The Mole fraction solubility ([2]; x*DES 0.4, 40°C) was 0.0538±0.0003 mole fraction, the Mole fraction solubility ([2]; x*DES 0.5, 25°C) was 0.0432±0.0002 mole fraction and the Mole fraction solubility ([2]; x*DES 0.5, 30°C) was 0.0476±0.0003 mole fraction. It also gave a Mole fraction solubility ([2]; x*DES 0.5, 35°C) of 0.0565±0.0003 mole fraction, a Mole fraction solubility ([2]; x*DES 0.5, 40°C) of 0.0690±0.0009 mole fraction and a Mole fraction solubility ([2]; x*DES 0.6, 25°C) of 0.0543±0.0003 mole fraction. The Mole fraction solubility ([2]; x*DES 0.6, 30°C) was 0.0601±0.0005 mole fraction, the Mole fraction solubility ([2]; x*DES 0.6, 35°C) was 0.0703±0.0005 mole fraction and the Mole fraction solubility ([2]; x*DES 0.6, 40°C) was 0.0870±0.0009 mole fraction. It also gave a Mole fraction solubility ([2]; x*DES 0.7, 25°C) of 0.0659±0.0007 mole fraction, a Mole fraction solubility ([2]; x*DES 0.7, 30°C) of 0.0737±0.0006 mole fraction and a Mole fraction solubility ([2]; x*DES 0.7, 35°C) of 0.0862±0.0007 mole fraction. The Mole fraction solubility ([2]; x*DES 0.7, 40°C) was 0.1046±0.0008 mole fraction, the Mole fraction solubility ([2]; x*DES 0.8, 25°C) was 0.0797±0.0006 mole fraction and the Mole fraction solubility ([2]; x*DES 0.8, 30°C) was 0.0901±0.0008 mole fraction. For the same compound, the Mole fraction solubility ([2]; x*DES 0.8, 35°C) was 0.1042±0.0013 mole fraction, the Mole fraction solubility ([2]; x*DES 0.8, 40°C) was 0.1253±0.0010 mole fraction and the Mole fraction solubility ([2]; x*DES 0.9, 25°C) was 0.0823 mole fraction and 0.0823±0.0013 mole fraction.
